According to US12258355B2, “Probes for imaging huntingtin protein” (CHDI Foundation, Inc., priority 2014, dated 2025):

Molecular target: T1, Q46 protein aggregates (Homo sapiens, UniProt P42858)
T1 construct: fused on or other part: GST at the N-terminus, cut off with thrombin before the test to start aggregation; The wells held aggregated Q46 without GST
Assay: Q46 radioligand binding assay (RBA)
Conditions: 10 nM ligand [3H3]MK-3328
Procedure, shortened: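 Aggregates from thrombin-cleaved GST-Q46 (16 h, 37° C) at 5 μM monomer-equivalent were pre-incubated 20 min at room temperature with compound (1 μM to 30 pM) in 150 mM NaCl, 50 mM Tris pH 8.0, then 60 min at 37° C with 10 nM [^3H3]MK-3328. Bound radioactivity was filtered and counted; IC50 came from a four-parameter global fit normalized to vehicle and 3 μM unlabelled MK-3328.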

T1 sequence (P42858 with tags, fused parts or gaps with the stated changes, form open): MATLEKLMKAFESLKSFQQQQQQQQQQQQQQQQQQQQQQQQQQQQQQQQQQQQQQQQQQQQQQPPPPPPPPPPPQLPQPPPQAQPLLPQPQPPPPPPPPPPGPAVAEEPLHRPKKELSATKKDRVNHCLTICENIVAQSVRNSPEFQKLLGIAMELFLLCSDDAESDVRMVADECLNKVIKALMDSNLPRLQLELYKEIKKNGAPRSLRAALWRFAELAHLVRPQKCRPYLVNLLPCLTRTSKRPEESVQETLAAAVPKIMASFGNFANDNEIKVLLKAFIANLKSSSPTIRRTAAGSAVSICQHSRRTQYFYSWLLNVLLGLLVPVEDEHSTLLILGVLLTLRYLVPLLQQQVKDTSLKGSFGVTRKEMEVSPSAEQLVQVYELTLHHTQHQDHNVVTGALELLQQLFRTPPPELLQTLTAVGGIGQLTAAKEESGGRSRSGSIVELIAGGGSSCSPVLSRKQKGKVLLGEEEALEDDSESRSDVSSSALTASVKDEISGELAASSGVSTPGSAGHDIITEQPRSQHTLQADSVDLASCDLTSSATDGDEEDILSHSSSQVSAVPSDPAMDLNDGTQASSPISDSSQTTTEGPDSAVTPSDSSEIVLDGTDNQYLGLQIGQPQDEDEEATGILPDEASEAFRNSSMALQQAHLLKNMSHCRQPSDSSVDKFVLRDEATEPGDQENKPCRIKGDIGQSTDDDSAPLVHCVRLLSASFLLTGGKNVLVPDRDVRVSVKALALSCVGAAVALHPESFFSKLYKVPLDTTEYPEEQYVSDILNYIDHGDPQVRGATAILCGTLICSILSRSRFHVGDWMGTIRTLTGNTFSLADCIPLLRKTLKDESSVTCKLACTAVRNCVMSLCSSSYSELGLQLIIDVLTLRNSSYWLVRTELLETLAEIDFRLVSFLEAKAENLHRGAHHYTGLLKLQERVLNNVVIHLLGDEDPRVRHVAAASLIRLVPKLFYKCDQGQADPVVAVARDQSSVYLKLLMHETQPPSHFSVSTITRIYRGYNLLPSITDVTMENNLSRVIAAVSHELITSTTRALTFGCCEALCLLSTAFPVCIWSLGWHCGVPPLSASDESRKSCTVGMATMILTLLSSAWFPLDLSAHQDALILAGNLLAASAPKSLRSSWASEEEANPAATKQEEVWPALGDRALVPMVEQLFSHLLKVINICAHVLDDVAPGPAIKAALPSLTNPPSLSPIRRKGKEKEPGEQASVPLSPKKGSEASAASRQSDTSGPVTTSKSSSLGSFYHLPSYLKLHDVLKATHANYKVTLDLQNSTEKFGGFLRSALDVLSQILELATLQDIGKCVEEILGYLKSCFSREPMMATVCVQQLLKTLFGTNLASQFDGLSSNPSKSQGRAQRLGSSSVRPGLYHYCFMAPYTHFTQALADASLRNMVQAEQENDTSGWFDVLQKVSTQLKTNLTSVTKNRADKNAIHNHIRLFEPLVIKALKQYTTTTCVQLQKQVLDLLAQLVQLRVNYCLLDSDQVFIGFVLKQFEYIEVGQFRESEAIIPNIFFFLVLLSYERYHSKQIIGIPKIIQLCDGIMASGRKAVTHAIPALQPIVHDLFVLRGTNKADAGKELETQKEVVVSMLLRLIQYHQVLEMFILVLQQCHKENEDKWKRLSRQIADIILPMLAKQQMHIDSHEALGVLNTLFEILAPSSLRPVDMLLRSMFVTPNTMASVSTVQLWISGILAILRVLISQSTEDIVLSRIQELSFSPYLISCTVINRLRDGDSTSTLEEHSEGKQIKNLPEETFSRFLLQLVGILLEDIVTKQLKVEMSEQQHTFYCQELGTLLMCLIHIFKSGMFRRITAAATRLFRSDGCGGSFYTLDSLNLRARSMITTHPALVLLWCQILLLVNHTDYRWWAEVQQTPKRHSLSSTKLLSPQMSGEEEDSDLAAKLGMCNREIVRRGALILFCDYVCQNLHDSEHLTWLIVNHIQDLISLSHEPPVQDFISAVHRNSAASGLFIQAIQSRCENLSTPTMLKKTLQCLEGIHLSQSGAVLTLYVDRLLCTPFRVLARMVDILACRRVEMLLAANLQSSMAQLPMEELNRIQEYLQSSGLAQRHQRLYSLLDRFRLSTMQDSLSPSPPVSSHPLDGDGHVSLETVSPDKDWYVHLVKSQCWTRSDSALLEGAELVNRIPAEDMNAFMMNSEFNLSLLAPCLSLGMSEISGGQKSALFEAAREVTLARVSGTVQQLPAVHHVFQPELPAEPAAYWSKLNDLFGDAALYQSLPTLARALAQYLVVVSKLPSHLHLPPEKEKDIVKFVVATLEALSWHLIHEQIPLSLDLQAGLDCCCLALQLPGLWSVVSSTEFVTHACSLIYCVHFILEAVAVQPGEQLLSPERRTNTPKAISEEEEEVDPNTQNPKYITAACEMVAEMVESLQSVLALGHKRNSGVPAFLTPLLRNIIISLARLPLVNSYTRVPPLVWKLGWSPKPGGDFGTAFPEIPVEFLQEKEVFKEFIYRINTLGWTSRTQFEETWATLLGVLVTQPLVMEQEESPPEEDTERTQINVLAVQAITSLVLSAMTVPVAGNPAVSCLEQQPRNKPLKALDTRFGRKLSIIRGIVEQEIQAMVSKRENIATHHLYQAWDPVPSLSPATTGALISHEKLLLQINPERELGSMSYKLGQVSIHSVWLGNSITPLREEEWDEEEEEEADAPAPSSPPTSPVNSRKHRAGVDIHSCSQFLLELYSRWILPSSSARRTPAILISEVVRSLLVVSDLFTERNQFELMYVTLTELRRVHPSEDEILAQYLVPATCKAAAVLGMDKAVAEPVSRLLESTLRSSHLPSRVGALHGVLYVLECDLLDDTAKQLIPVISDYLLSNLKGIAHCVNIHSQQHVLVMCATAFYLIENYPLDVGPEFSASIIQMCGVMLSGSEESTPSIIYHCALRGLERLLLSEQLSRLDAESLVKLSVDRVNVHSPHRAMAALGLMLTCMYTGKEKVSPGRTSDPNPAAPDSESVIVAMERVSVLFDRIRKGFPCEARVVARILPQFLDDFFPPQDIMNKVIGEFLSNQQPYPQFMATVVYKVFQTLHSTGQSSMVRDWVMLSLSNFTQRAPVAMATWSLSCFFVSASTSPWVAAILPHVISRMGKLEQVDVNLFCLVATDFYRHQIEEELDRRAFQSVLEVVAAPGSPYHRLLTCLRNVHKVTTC

IC50 [nM]	SMILES
< 100	COc1cncc(C(=O)Nc2ccc3oc(-c4ccc(=O)n(C)n4)nc3c2)c1 [5-methoxy-N-[2-(1-methyl-6-oxo-1,6-dihydropyridazin-3-yl)-1,3-benzoxazol-5-yl]pyridine-3-carboxamide]
< 100	COc1ccc(COc2ccc3oc(N4CCn5cncc5C4)nc3c2)nc1 [2-{5H,6H,7H,8H-imidazo[1,5-a]pyrazin-7-yl}-5-[(5-methoxypyridin-2-yl)methoxy]-1,3-benzoxazole]
< 100	CNc1ccc(COc2ccc3oc(-c4cccnc4)nc3c2)nc1 [N-methyl-6-({[2-(pyridin-3-yl)-1,3-benzoxazol-5-yl]oxy}methyl)pyridin-3-amine]
< 100	COc1ccc(COc2ccc3oc(-c4cccnn4)nc3c2)nc1 [5-[(5-methoxypyridin-2-yl)methoxy]-2-(pyridazin-3-yl)-1,3-benzoxazole]
100 to 500	Cn1cc(-c2nc3cc(OCc4ccc(O)cn4)ccc3o2)cn1 [6-({[2-(1-methyl-1H-pyrazol-4-yl)-1,3-benzoxazol-5-yl]oxy}methyl)pyridin-3-ol]
< 100	COc1ccc(COc2ccc3oc(-c4cccc(Oc5ccccc5)c4)nc3c2)nc1 [5-[(5-methoxypyridin-2-yl)methoxy]-2-(3-phenoxyphenyl)-1,3-benzoxazole]
< 100	COc1ccc(COc2cnc3oc(-c4cccnc4)nc3c2)nc1 [3-{6-[(5-methoxypyridin-2-yl)methoxy]-[1,3]oxazolo[5,4-b]pyridin-2-yl}pyridine]
< 100	COc1ccc(COc2cnc3oc(-c4cnccn4)nc3c2)nc1 [2-{6-[(5-methoxypyridin-2-yl)methoxy]-[1,3]oxazolo[5,4-b]pyridin-2-yl]pyrazine]
< 100	c1cnc(Nc2ccc3oc(-c4cccnc4)nc3c2)nc1 [2-(pyridin-3-yl)-N-(pyrimidin-2-yl)-1,3-benzoxazol-5-amine]
< 100	Cc1cncc(C(=O)Nc2ccc3oc(-c4cccnc4)nc3c2)c1 [5-methyl-N-[2-(pyridin-3-yl)-1,3-benzoxazol-5-yl]pyridine-3-carboxatmide]
< 100	COc1cnc2c(c1)CN(c1ccc3oc(-c4cccnc4)nc3c1)C2=O [3-methoxy-6-[2-(pyridin-3-yl)-1,3-benzoxazol-5-yl]-5H,6H,7H-pyrrolo[3,4-b]pyridin-7-one]
100 to 500	CN(C)CCOc1ccc(COc2ccc3oc(-c4cccnc4)nc3c2)cc1 [dimethyl({2-[4-({[2-(pyridin-3-yl)-1,3-benzoxazol-5-yl]oxy}methyl)phenoxy]ethyl})amine]
< 100	COc1cnc(COc2ccc3oc(-c4cccnc4)nc3c2)cn1 [5-[(5-methoxypyrazin-2-yl)methoxy]-2-(pyridin-3-yl)-1,3-benzoxazole]
< 100	Cn1cc(-c2cc3cc(OCc4cncnc4)ccc3o2)c(C#N)n1 [1-methyl-4-[5-(pyrimidin-5-ylmethoxy)-1-benzofuran-2-yl]-1H-pyrazole-3-carbonitrile]
< 100	COc1cnc(COc2cnc3oc(-c4cccnc4)nc3c2)nc1 [5-methoxy-2-({[2-(pyridin-3-yl)-[1,3]oxazolo[5,4-b]pyridin-6-yl]oxy}methyl)pyrimidine]
< 100	COc1ccc(COc2ccc3oc(-c4cn(C)c(=O)cn4)nc3c2)nc1 [5-{5-[(5-methoxypyridin-2-yl)methoxy]-1,3-benzoxazol-2-yl}-1-methyl-1,2-dihydropyrazin-2-one]
< 100	COc1cncc(COc2cnc3oc(-c4cccnc4)nc3c2)c1 [3-methoxy-5-({[2-(pyridin-3-yl)-[1,3]oxazolo[5,4-b]pyridin-6-yl]oxy}methyl)pyridine]
< 100	COc1ccc(/C=C\c2cnc3oc(-c4cccnc4)nc3c2)cc1 [3-{6-[(Z)-2-(4-methoxyphenyl)ethenyl]-[1,3]oxazolo[5,4-b]pyridin-2-yl}pyridine]
100 to 500	COc1ccc2c(c1)CCN(c1ccc3oc(-c4cccnc4)nc3c1)C2=O [6-methoxy-2-[2-(pyridin-3-yl)-1,3-benzoxazol-5-yl]-1,2,3,4-tetrahydroisoquinolin-1-one]
< 100	O=C(Nc1ccc2oc(-c3cccnc3)nc2c1)OCc1ccc(O)cn1 [(5-hydroxypyridin-2-yl)methyl N-[2-(pyridin-3-yl)-1,3-benzoxazol-5-yl]carbamate]
100 to 500	C1=C(COc2ccc3oc(-c4cccnc4)nc3c2)N2CCN=C2S1 [5-{5H,6H-imidazo[2,1-b][1,3]thiazol-3-ylmethoxy}-2-(pyridin-3-yl)-1,3-benzoxazole]
100 to 500	COc1ccc(COc2cnc3oc(-c4ccc[n+]([O-])c4)nc3c2)[n+]([O-])c1 [3-{6-[(5-methoxy-1-oxidopyridin-1-ium-2-yl)methoxy]-[1,3]oxazolo[5,4-b]pyridin-2-yl}pyridin-1-ium-1-olate]
< 100	COc1ccc(COc2ccc3oc(-c4cc5ccccc5o4)nc3c2)nc1 [2-(1-benzofuran-2-yl)-5-[(5-methoxypyridin-2-yl)methoxy]-1,3-benzoxazole]
< 100	COc1ccc(COc2ccc3oc(-c4ccc(=O)n(C)n4)nc3c2)nc1 [6-{5-[(5-methoxypyridin-2-yl)methoxy]-1,3-benzoxazol-2-yl}-2-methyl-2,3-dihydropyridazin-3-one]

IC50 [nM]	SMILES
< 100	COc1ccc(-c2nc3cc(NC(=O)c4ccccc4OC)ccc3o2)cc1 [2-methoxy-N-[2-(4-methoxyphenyl)-1,3-benzoxazol-5-yl]benzamide]
< 100	O=C(Nc1ccc2oc(-c3cccnc3)nc2c1)c1ccc(Oc2ccccc2)nc1 [6-phenoxy-N-[2-(pyridin-3-yl)-1,3-benzoxazol-5-yl]pyridine-3-carboxamide]
< 100	COc1ccc(COc2ccc3oc(-c4cccnc4)nc3c2)cc1 [5-[(4-methoxyphenyl)methoxy]-2-(pyridin-3-yl)-1,3-benzoxazole]
< 100	COCCOc1cncc(-c2nc3cc(OCc4ccc(OC)cn4)ccc3o2)c1 [2-[5-(2-methoxyethoxy)pyridin-3-yl]-5-[(5-methoxypyridin-2-yl)methoxy]-1,3-benzoxazole]
< 100	Cc1cc(C(=O)Nc2ccc3oc(-c4cccnc4)nc3c2)ccn1 [2-methyl-N-[2-(pyridin-3-yl)-1,3-benzoxazol-5-yl]pyridine-4-carboxamide]
< 100	c1cncc(-c2nc3cc(OCc4ccc(OCCN5CCOCC5)cn4)ccc3o2)c1 [5-({5-[2-(morpholin-4-yl)ethoxy]pyridin-2-yl}methoxy)-2-(pyridin-3-yl)-1,3-benzoxazole]
< 100	COc1ccc(COc2ccc3oc([C@@H]4Cc5ccccc5O4)nc3c2)nc1 [2-[(2S)-2,3-dihydro-1-benzofuran-2-yl]-5-[(5-methoxypyridin-2-yl)methoxy]-1,3-benzoxazole]
< 100	N#Cc1ccc(C(=O)Nc2ccc3oc(-c4cccnc4)nc3c2)cc1 [4-cyano-N-[2-(pyridin-3-yl)-1,3-benzoxazol-5-yl]benzamide]
< 100	Cn1cc(COc2ccc3oc(-c4cnccc4C#N)cc3c2)cn1 [3-{5-[(1-methyl-1H-pyrazol-4-yl)methoxy]-1-benzofuran-2-yl}pyridine-4-carbonitrile]
< 100	CN(C)CCCOc1ccc(COc2ccc3oc(-c4cccnc4)nc3c2)cc1 [dimethyl({3-[4-({[2-(pyridin-3-yl)-1,3-benzoxazol-5-yl]oxy}methyl)phenoxy]propyl})amine]
< 100	CNCc1cncc(-c2nc3cc(OCc4ccc(OC)cn4)ccc3o2)c1 [[(5-{5-[(5-methoxypyridin-2-yl)methoxy]-1,3-benzoxazol-2-yl}pyridin-3-yl)methyl](methyl)amine]
< 100	O=C(Nc1ccc2oc(-c3cccnc3)nc2c1)c1ccc2ccccc2n1 [N-[2-(pyridin-3-yl)-1,3-benzoxazol-5-yl]quinoline-2-carboxamide]
< 100	N#Cc1cnccc1-c1cc2cc(Oc3cccnc3)ccc2o1 [4-[5-(pyridin-3-yloxy)-1-benzofuran-2-yl]pyridine-3-carbonitrile]
< 100	COc1ccc(COc2ccc3oc([C@H]4Cc5ccccc5O4)nc3c2)nc1 [2-[(2R)-2,3-dihydro-1-benzofuran-2-yl]-5-[(5-methoxypyridin-2-yl)methoxy]-1,3-benzoxazole]
< 100	COc1cnc(COc2ccc3[nH]c(-c4cccnc4)nc3c2)cn1 [5-[(5-methoxypyrazin-2-yl)methoxy]-2-(pyridin-3-yl)-1H-1,3-benzodiazole]
< 100	COc1ccc(-c2ccc3oc(-c4cccnc4)nc3c2)cc1 [5-(4-methoxyphenyl)-2-(pyridin-3-yl)-1,3-benzoxazole]
< 100	COc1ccc(COc2ccc3oc(-c4ccc(=O)n(C)c4)nc3c2)nc1 [5-{5-[(5-methoxypyridin-2-yl)methoxy]-1,3-benzoxazol-2-yl}-1-methyl-1,2-dihydropyridin-2-one]
100 to 500	O=C(Nc1ccc2oc(-c3cccnc3)nc2c1)c1cc(O)ccn1 [4-hydroxy-N-[2-(pyridin-3-yl)-1,3-benzoxazol-5-yl]pyridine-2-carboxamide]
< 100	COc1ccc(C(=O)Nc2ccc3oc(-c4cccc(C)c4)nc3c2)cc1 [4-methoxy-N-[2-(3-methylphenyl)-1,3-benzoxazol-5-yl]benzamide]
100 to 500	OC(Cc1ccc2oc(-c3cccnc3)nc2c1)c1ccccn1 (centres unmarked) [1-(pyridin-2-yl)-2-[2-(pyridin-3-yl)-1,3-benzoxazol-5-yl]ethan-1-ol]
< 100	COc1ccc(COc2ccc3oc(-c4cccc(C#N)c4)nc3c2)nc1 [3-{5-[(5-methoxypyridin-2-yl)methoxy]-1,3-benzoxazol-2-yl]benzonitrile]
100 to 500	Cn1ccnc1COc1ccc2oc(-c3ccncc3C#N)cc2c1 [4-{5-[(1-methyl-1H-imidazol-2-yl)methoxy]-1-benzofuran-2-yl}pyridine-3-carbonitrile]
< 100	O=C(Nc1ccc2oc(-c3cccnc3)nc2c1)c1ccc(-c2ncccn2)cc1 [N-[2-(pyridin-3-yl)-1,3-benzoxazol-5-yl]-4-(pyrimidin-2-yl)benzamide]
